Results published in ChEMBL document CHEMBL1130610, “Synthesis and immunosuppressant activity of pyrazole carboxamides” (Bioorg Med Chem Lett, 1998).
Converted amounts (≈) assume the structure as drawn. The source made the active and inactive calls. No cut-off for these calls is given here.

Assays:
Homo sapiens [1] = species: Homo sapiens; test: Immunosuppressant activity using human mixed leukocyte response (HMLR).; format: functional
Rattus norvegicus [2] = species: Rattus norvegicus; test: Immunosuppressant activity in rat using mixed leukocyte response (MLR).; format: functional
Rattus norvegicus [3] = species: Rattus norvegicus; test: Compound was tested for immunosuppressant activity in rat using mixed leukocyte response(MLR) at a concentration of 10 uM; Not active; format: functional
Homo sapiens [4] = species: Homo sapiens; test: Compound was tested for immunosuppressant activity using human mixed leukocyte response(HMLR) at a concentration of 10 uM; Not active; format: functional
Homo sapiens [5] = species: Homo sapiens; test: Compound was tested for immunosuppressant activity using human mixed leukocyte response(HMLR); Not active, < 20 % inhibition at 10 uM; format: functional
Rattus norvegicus [6] = species: Rattus norvegicus; test: Compound was tested for immunosuppressant activity in rat using mixed leukocyte response(MLR); Not active, < 20 % inhibition at 10 uM; format: functional
Homo sapiens [7] = species: Homo sapiens; test: Compound was tested for immunosuppressant activity using human mixed leukocyte response(HMLR) assay.; format: functional
Homo sapiens [8] = species: Homo sapiens; test: Compound was tested for immunosuppressant activity using human mixed leukocyte response(HMLR) at 10 uM; Not active; format: functional
[9] = Aqueous solubility at a pH of 7.3.; format: physicochemical; details: pH 7.3, read-out: S
Rattus norvegicus [10] = species: Rattus norvegicus; test: Compound was tested for immunosuppressant activity in rat using mixed leukocyte response (MLR).; format: functional
[11] = C max value was evaluated; format: ADME, organism-based; details: in vivo
[12] = Half-life value was evaluated; format: ADME
Homo sapiens [13] = species: Homo sapiens; test: Compound was tested for immunosuppressant activity using human mixed leukocyte response (HMLR).; format: functional

SMILES | IC50 (Homo sapiens [1]) [nM] | IC50 (Rattus norvegicus [2]) [nM] | further results
Cc1c(C(=O)Nc2ccc(C(F)(F)F)cc2)cnn1-c1ccc(Cl)cc1 | 410 | 7400 | 
Cc1c(C(=O)Nc2ccc(OC(F)(F)F)cc2)cnn1-c1ccc(F)cc1 | 3400 | 2600 | 
Cc1n[nH]cc1C(=O)Nc1ccc(C(F)(F)F)cc1 |  |  | inhibition at 10 µM (Rattus norvegicus [3]): < 20%; inhibition at 10 µM (Homo sapiens [4]): < 20%
C/C(Nc1ccc(F)cc1)=C(/C#N)C(=O)Nc1ccc(C(F)(F)F)cc1 |  |  | inhibition (Homo sapiens [5]): inactive; inhibition (Rattus norvegicus [6]): inactive
Cc1c(C(=O)Nc2ccc(C(F)(F)F)cc2)cnn1-c1ccc([N+](=O)[O-])cc1 | 5700 | 2300 | 
COc1cccc(-n2ncc(C(=O)Nc3ccc(C(F)(F)F)cc3)c2C)c1 | 2500 | 2500 | 
Cc1oncc1C(=O)Nc1ccc(C(F)(F)F)cc1 [LEFLUNOMIDE] | 5400 | 1000 | 
Cc1c(C(=O)Nc2ccc(C(F)(F)F)cc2)cnn1Cc1ccccc1 | 3700 | 2700 | 
C/C(Nc1ccccc1)=C(/C#N)C(=O)Nc1ccc(C(F)(F)F)cc1 |  |  | inhibition (Homo sapiens [5]): inactive; inhibition (Rattus norvegicus [6]): inactive
C/C(Nc1ccc([N+](=O)[O-])cc1)=C(/C#N)C(=O)Nc1ccc(C(F)(F)F)cc1 |  |  | inhibition (Homo sapiens [5]): inactive; inhibition (Rattus norvegicus [6]): inactive
COc1cccc(NC(=O)c2cnn(-c3ccc(F)cc3)c2C)c1 | 3700 | 3600 | 
Cc1c(C(=O)Nc2ccccc2F)cnn1-c1ccc(F)cc1 | 4000 | 5100 | 
Cc1c(C(=O)Nc2ccc(C(F)(F)F)cc2)cnn1-c1ccc(F)cc1 |  |  | solubility [9]: 0.4 µg/mL (≈ 1.1 µM); IC50 (Rattus norvegicus [10]): 270 nM; Cmax [11]: 460 ng/mL; half-life [12]: 13.7 h; IC50 (Homo sapiens [13]): 850 nM
Cc1c(C(=O)Nc2ccc(C(F)(F)F)cc2)cnn1Cc1ccc(F)cc1 | 3600 | 2400 | 
COc1ccc(-n2ncc(C(=O)Nc3ccc(C(F)(F)F)cc3)c2C)cc1 | 340 | 1000 | 
Cc1c(-c2ccc(-c3ccccc3F)cc2)nc2ccc(F)cc2c1C(=O)O [BREQUINAR] | 3900 | 1600 | 
Cc1c(C(=O)Nc2cccc(C(F)(F)F)c2)cnn1-c1ccc(F)cc1 | 1700 | 1100 | 
Cc1c(C(=O)Nc2ccc(C(F)(F)F)cc2)cnn1CCc1ccc(F)cc1 | 5400 | 1700 | 
Cc1ccc(-n2ncc(C(=O)Nc3ccc(C(F)(F)F)cc3)c2C)cc1 | 410 | 1000 | 

Further molecules by falling IC50 (Rattus norvegicus [2]), results first:

IC50 (Homo sapiens [1]) [nM] | IC50 (Rattus norvegicus [2]) [nM] | SMILES | further results
5700 | 890 | Cc1cccc(NC(=O)c2cnn(-c3ccc(F)cc3)c2C)c1 | 
2500 | 890 | Cc1cccc(-n2ncc(C(=O)Nc3ccc(C(F)(F)F)cc3)c2C)c1 | 
3000 | 800 | Cc1c(C(=O)Nc2cccc(F)c2)cnn1-c1ccc(F)cc1 | 
2300 | 650 | Cc1c(C(=O)Nc2ccc(C(F)(F)F)cc2)cnn1-c1ccccc1 | 
 | 610 | Cc1c(C(=O)Nc2ccc(F)cc2)cnn1-c1ccc(F)cc1 | IC50 (Homo sapiens [7]): 2400 nM
2200 | 410 | Cc1cc(C)cc(-n2ncc(C(=O)Nc3ccc(C(F)(F)F)cc3)c2C)c1 | 
 | 330 | Cc1c(C(=O)NCc2ccc(F)cc2)cnn1-c1ccc(F)cc1 | inhibition at 10 µM (Homo sapiens [8]): < 20%
3200 | 310 | Cc1c(C(=O)N(CC(=O)O)c2ccc(C(F)(F)F)cc2)cnn1-c1ccc(F)cc1 | solubility [9]: 1530 µg/mL (≈ 3640 µM); Cmax [11]: 4450 ng/mL; half-life [12]: 6 h
 | 300 | Cc1c(C(=O)NCCc2ccc(F)cc2)cnn1-c1ccc(F)cc1 | inhibition at 10 µM (Homo sapiens [4]): < 20%
2600 | 260 | Cc1c(C(=O)Nc2ccc(C(F)(F)F)cc2)cnn1-c1ccccc1C(F)(F)F | 
1600 | 240 | Cc1c(C(=O)Nc2ccc(C(F)(F)F)cc2)cnn1-c1cccc(Cl)c1Cl | 
3100 | 220 | Cc1c(C(=O)Nc2ccc(C(F)(F)F)cc2)cnn1-c1cccc(F)c1 | 
1300 | 210 | Cc1c(C(=O)Nc2ccc(C(F)(F)F)cc2)cnn1-c1ccc(F)c(Cl)c1 | 
540 | 200 | Cc1ccc(NC(=O)c2cnn(-c3ccc(F)cc3)c2C)cc1 | 
1500 | 150 | Cc1ccccc1-n1ncc(C(=O)Nc2ccc(C(F)(F)F)cc2)c1C | 
1100 | 110 | Cc1ccccc1NC(=O)c1cnn(-c2ccc(F)cc2)c1C | 
580 | 110 | CCCCC(CC)NC(=O)c1cnn(-c2ccc(F)cc2)c1C (stereo not given) | 
1100 | 110 | Cc1c(C(=O)Nc2ccc(C(F)(F)F)cc2)cnn1-c1ccccc1F | 
